Measurements as given in patent publication US20070049564A1 (Wyeth, priority 2005, published 2007).
Where two headings read alike, the source gives them in different places.

Key:
Staph. = assay: Range of MIC for Staph. strains, including MRSA; conditions: Staphylococcus aureus, MRSA
E. coli GC 2235 = assay: MIC, broth microdilution; conditions: Escherichia coli
S. aureus GC 1079 = assay: MIC, broth microdilution; conditions: Staphylococcus aureus
Procedure: Antimicrobial susceptibility testing. The in vitro activities of the antibiotics are determined by the broth microdilution method as recommended by the National Committee for Clinical Laboratory Standards (NCCLS) (1). Mueller-Hinton II broth (MHBII)(BBL Cockeysville, Md.) is the medium employed in the testing procedures. Microtiter plates containing serial dilutions of each antimicrobial agent are inoculated with each organism to yield the appropriate density (10^5 CFU/ml) in a 100 μl final volume. The plates are incubated for 18-22 hours at 35° C. in ambient air.
Representative compounds were first incubated in mouse serum for an hour prior to the in vitro testing against a panel of selected gram-positive and gram-negative bacteria strains. All compounds were also pre-incubated in water for an hour prior to testing as control. Representative compounds of Formula I were incubated in human serum prior to MIC determination.

S. aureus GC 6469 = assay: MIC, broth microdilution; conditions: Staphylococcus aureus
S. aureus GC 6335 = assay: MIC, broth microdilution; conditions: Staphylococcus aureus
E. faecalis GC 4555 = assay: MIC, broth microdilution; conditions: Enterococcus faecalis
S. typhimurium GC 2172 = assay: MIC, broth microdilution; conditions: Salmonella enterica, TYPHIMURIUM
c. albicans GC 3066 = assay: MIC, broth microdilution
E. coli = assay: Range of MIC for E. coli strains; conditions: Escherichia coli
E. coli GC 2233 = assay: MIC, broth microdilution; conditions: Escherichia coli
E. faecium GC 4556 = assay: MIC, broth microdilution; conditions: Enterococcus faecium
E. coli GC 1073 = assay: MIC, broth microdilution; conditions: Escherichia coli
E. coli GC 2271 = assay: MIC, broth microdilution; conditions: Escherichia coli
S. pyogenes GC 4563 = assay: MIC, broth microdilution; conditions: Streptococcus pyogenes
E. faecium GC 2243 = assay: MIC, broth microdilution; conditions: Enterococcus faecium
E. coli GC 2236 = assay: MIC, broth microdilution; conditions: Escherichia coli
E. coli GC 2270 = assay: MIC, broth microdilution; conditions: Escherichia coli
E. faecalis GC 2265 = assay: MIC, broth microdilution; conditions: Enterococcus faecalis
E. coli GC 3226 = assay: MIC, broth microdilution; conditions: Escherichia coli
S. agalactiae GC 4564 = assay: MIC, broth microdilution; conditions: Streptococcus agalactiae

CCCCN(CC(=O)Nc1cc(N(C)C)c2c(c1O)C(=O)C1=C(O)[C@]3(O)C(=O)C(C(N)=O)=C(O)[C@@H](N(C)C)[C@@H]3C[C@@H]1C2)C(=O)OCOC(=O)c1cc(C)cc(C)c1 [Example 22, ({[(2-{[(5aR,6aS,7S,10aS)-9-(aminocarbonyl)-4,7-bis(dimethylamino)-1,8,10a,11-tetrahydroxy-10,12-dioxo-5,5a,6,6a,7,10,10a,12-octahydrotetracen-2-yl]amino}-2-oxoethyl)(butyl)amino]carbonyl}oxy)methyl 3,5-dimethylbenzoate]
64 µg/mL: MIC (S. aureus GC 6469; GC6469, read-out: MINIMAL INHIBITORY CONCENTRATION MIC, pre-incubated in Water) | MIC (E. faecalis GC 4555; GC4555, read-out: MINIMAL INHIBITORY CONCENTRATION MIC, pre-incubated in Water) | MIC (E. faecium GC 4556; GC4556, read-out: MINIMAL INHIBITORY CONCENTRATION MIC, pre-incubated in Water) | MIC (E. faecalis GC 2265; GC2265, read-out: MINIMAL INHIBITORY CONCENTRATION MIC, pre-incubated in Water)
1 to 8 µg/mL: MIC (E. coli; 20 h, read-out: Range of MIC, E. coli (Mouse Serum)) | MIC (E. coli; read-out: Minimum inhibitory concentration (MIC), E. coli (mouse serum))
> 64 µg/mL: MIC (E. coli GC 2235; GC2235, read-out: MINIMAL INHIBITORY CONCENTRATION MIC, pre-incubated in Water) | MIC (S. typhimurium GC 2172; read-out: MINIMAL INHIBITORY CONCENTRATION MIC, pre-incubated in Water) | MIC (c. albicans GC 3066; Candida albicans, GC3066, read-out: MINIMAL INHIBITORY CONCENTRATION MIC) | MIC (E. coli; read-out: Minimum inhibitory concentration (MIC), E. coli (water)) | MIC (E. coli; read-out: Range of MIC, E. coli (Water)) | MIC (E. coli GC 2233; GC2233, read-out: MINIMAL INHIBITORY CONCENTRATION MIC, pre-incubated in Water) | MIC (E. coli GC 1073; GC1073, read-out: MINIMAL INHIBITORY CONCENTRATION MIC, pre-incubated in Water) | MIC (E. coli GC 2271; GC2271, read-out: MINIMAL INHIBITORY CONCENTRATION MIC, pre-incubated in Water) | MIC (E. coli GC 2236; GC2236, read-out: MINIMAL INHIBITORY CONCENTRATION MIC, pre-incubated in Water) | MIC (E. coli GC 2270; GC2270, read-out: MINIMAL INHIBITORY CONCENTRATION MIC, pre-incubated in Water) | MIC (E. coli GC 3226; GC3226, read-out: MINIMAL INHIBITORY CONCENTRATION MIC, pre-incubated in Water)
2 µg/mL: MIC (S. aureus GC 1079; GC1079, read-out: MINIMAL INHIBITORY CONCENTRATION MIC, pre-incubated in Mouse Serum) | MIC (S. aureus GC 6335; GC6335, read-out: MINIMAL INHIBITORY CONCENTRATION MIC, pre-incubated in Mouse Serum) | MIC (E. faecalis GC 4555; GC4555, read-out: MINIMAL INHIBITORY CONCENTRATION MIC, pre-incubated in Mouse Serum) | MIC (E. coli GC 2233; GC2233, read-out: MINIMAL INHIBITORY CONCENTRATION MIC, pre-incubated in Mouse Serum) | MIC (E. faecium GC 4556; GC4556, read-out: MINIMAL INHIBITORY CONCENTRATION MIC, pre-incubated in Mouse Serum) | MIC (E. coli GC 1073; GC1073, read-out: MINIMAL INHIBITORY CONCENTRATION MIC, pre-incubated in Mouse Serum) | MIC (E. coli GC 2236; GC2236, read-out: MINIMAL INHIBITORY CONCENTRATION MIC, pre-incubated in Mouse Serum) | MIC (E. faecalis GC 2265; GC2265, read-out: MINIMAL INHIBITORY CONCENTRATION MIC, pre-incubated in Mouse Serum)
1 µg/mL: MIC (E. coli GC 2235; GC2235, read-out: MINIMAL INHIBITORY CONCENTRATION MIC, pre-incubated in Mouse Serum) | MIC (E. coli GC 2271; GC2271, read-out: MINIMAL INHIBITORY CONCENTRATION MIC, pre-incubated in Mouse Serum) | MIC (S. pyogenes GC 4563; GC4563, read-out: MINIMAL INHIBITORY CONCENTRATION MIC, pre-incubated in Water) | MIC (E. faecium GC 2243; GC2243, read-out: MINIMAL INHIBITORY CONCENTRATION MIC, pre-incubated in Mouse Serum) | MIC (E. coli GC 2270; GC2270, read-out: MINIMAL INHIBITORY CONCENTRATION MIC, pre-incubated in Mouse Serum) | MIC (S. agalactiae GC 4564; GC4564, read-out: MINIMAL INHIBITORY CONCENTRATION MIC, pre-incubated in Mouse Serum)
32 µg/mL: MIC (S. aureus GC 1079; GC1079, read-out: MINIMAL INHIBITORY CONCENTRATION MIC, pre-incubated in Water)
>64 UG/ML: MINIMAL INHIBITORY CONCENTRATION MIC (c. albicans GC 3066; pre-incubated in Water)
0.5 µg/mL: MIC (S. pyogenes GC 4563; GC4563, read-out: MINIMAL INHIBITORY CONCENTRATION MIC, pre-incubated in Mouse Serum)
8 µg/mL: MIC (S. aureus GC 6335; GC6335, read-out: MINIMAL INHIBITORY CONCENTRATION MIC, pre-incubated in Water) | MIC (S. typhimurium GC 2172; read-out: MINIMAL INHIBITORY CONCENTRATION MIC, pre-incubated in Mouse Serum) | MIC (E. faecium GC 2243; GC2243, read-out: MINIMAL INHIBITORY CONCENTRATION MIC, pre-incubated in Water) | MIC (E. coli GC 3226; GC3226, read-out: MINIMAL INHIBITORY CONCENTRATION MIC, pre-incubated in Mouse Serum) | MIC (S. agalactiae GC 4564; GC4564, read-out: MINIMAL INHIBITORY CONCENTRATION MIC, pre-incubated in Water)
0.5 to 4 µg/mL: MIC (Staph.; read-out: Minimum inhibitory concentration (MIC), Staph. (mouse serum)) | MIC (Staph.; read-out: Range of MIC, Staph (Mouse Serum))
4 µg/mL: MIC (S. aureus GC 6469; GC6469, read-out: MINIMAL INHIBITORY CONCENTRATION MIC, pre-incubated in Mouse Serum)
